Measurements as given in ChEMBL document CHEMBL6078666, “Discovery of Novel Coumarin Pleuromutilin Derivatives as Potent Anti-MRSA Agents” (J Med Chem, 2024).
≈ marks a conversion by molar mass, not a printed value. Calls of active or inactive are those of the source. No cut-off for these calls is given here.

Assays:
[1] = Acute toxicity in po dosed female C57 mouse assessed as lethal dose measured after 48 hrs; assay type: organism-based; details: in vivo
Staphylococcus aureus [2] = experiment: Induction of morphological changes in methicillin-resistant Staphylococcus aureus ATCC 33591 assessed as appearance of wrinkled cell surface at 1 to 4 times MIC measured after 4 hrs by SEM analysis; assay type: functional, organism-based
Staphylococcus aureus [3] = experiment: (§1) Antibacterial activity against methicillin-resistant Staphylococcus aureus ATCC 33591 infected in female C57 mouse systemic infection model assessed as reduction in bacterial load in heart at 40 mg/kg, iv administered twice daily and measured after 7 days; assay type: functional; details: time 7 day
[4] = system: Staphylococcus epidermidis; experiment: Antibacterial activity against Staphylococcus epidermidis ATCC 51625 assessed as bacterial growth inhibition measured after 20 hrs by broth dilution method; assay type: functional
Staphylococcus aureus [5] = experiment: Antibacterial activity against methicillin resistant Staphylococcus aureus ATCC 33591 assessed as post antibiotic effect at 4 times MIC by time kill assay; assay type: functional
Staphylococcus aureus [6] = experiment: Bactericidal activity against methicillin-resistant Staphylococcus aureus ATCC 33591 at 1 to 8 times MIC by time kill assay; assay type: functional, organism-based; details: time <= 24.0 hrs
[7] = Hemolytic activity in rabbit RBC assessed as hemolysis rate at 0 to 100 ug/ml incubated for 1 hr by microplate reader analysis relative to control; assay type: toxicity, cell-based, Oryctolagus cuniculus, Erythrocyte; details: rabbit red blood cells, dose 0-100 µg/ml, read-out: Activity
Staphylococcus aureus [8] = experiment: as §1, with “distorted myocardial fibers” for “bacterial load”, “days by H and E staining based analysis” for “days”; assay type: functional, organism-based; details: time 7.0 day
Staphylococcus aureus [9] = experiment: Induction of morphological changes in methicillin-resistant Staphylococcus aureus ATCC 33591 assessed as appearance of rough cell surface at 1 time MIC measured after 4 hrs by SEM analysis; assay type: functional, organism-based
Staphylococcus aureus [10] = experiment: as §1, with “inflammatory infiltration” for “bacterial load”, “kidney” for “heart”, “days by H and E staining based analysis” for “days”; assay type: functional, organism-based; details: time 7.0 day
Staphylococcus aureus [11] = experiment: Antibacterial activity against methicillin-resistant Staphylococcus aureus ATCC 33591 infected in female C57 mouse systemic infection model assessed as reduction in bacterial load in kidney at 40 mg/kg, iv administered twice daily and measured after 7 days; assay type: functional; details: time 7 day
[12] = Hemolytic activity in rabbit RBC assessed as hemolysis rate at 200 ug/ml incubated for 1 hr by microplate reader analysis relative to control; assay type: toxicity, cell-based, Oryctolagus cuniculus, Erythrocyte; details: rabbit red blood cells, at 200 µg/mL, read-out: Activity
Staphylococcus aureus [13] = experiment: Antibiofilm activity in methicillin-resistant Staphylococcus aureus ATCC 33591 assessed as disruption of preformed biofilm at 1 time MIC measured after 24 hrs by crystal violet staining based assay relative to control; assay type: functional
Staphylococcus aureus [14] = experiment: Antibacterial activity against Staphylococcus aureus ATCC 25923 assessed as reduction in GFP expression at 1 to 4 times MIC measured after 1 hr by fluorescence microscopy based analysis; assay type: functional, organism-based
Enterococcus faecium [15] = experiment: Antibacterial activity against vancomycin-resistant Enterococcus faecium ATCC 51559 assessed as bacterial growth inhibition measured after 20 hrs by broth dilution method; assay type: functional
Staphylococcus aureus [16] = experiment: Bactericidal activity against methicillin-resistant Staphylococcus aureus ATCC 33591 at 1 times MIC measured upto 24 hrs by time kill assay; assay type: functional, organism-based
Staphylococcus aureus [17] = experiment: Antibiofilm activity in methicillin-resistant Staphylococcus aureus ATCC 33591 measured after 24 hrs by MTT assay; assay type: functional
Staphylococcus aureus [18] = experiment: Antibiofilm activity in methicillin-resistant Staphylococcus aureus ATCC 33591 assessed as inhibition of biofilm formation at 1/16 time MIC measured after 48 hrs by crystal violet staining based analysis relative to control; assay type: functional; parameters: scale not given: the % may be the effect or the level left
Staphylococcus aureus [19] = experiment: (§2) Antibacterial activity against methicillin-resistant Staphylococcus aureus ATCC 33591 infected in female C57 mouse systemic infection model assessed as restoration of cell morphology at 40 mg/kg, iv administered twice daily and measured after 7 days by H and E staining based analysis; assay type: functional, organism-based; details: time 7.0 day
Staphylococcus aureus [20] = experiment: Antibacterial activity against methicillin-resistant Staphylococcus aureus clinical isolate 202405157 assessed as bacterial growth inhibition measured after 20 hrs by broth dilution method; assay type: functional
Staphylococcus aureus [21] = experiment: as §2, with “reduction” for “restoration”, “of mononuclear” for “of”, “infiltration in liver” for “morphology”; assay type: functional, organism-based; details: time 7.0 day
Staphylococcus aureus [22] = experiment: Antibacterial activity against methicillin-resistant Staphylococcus aureus ATCC 33591 infected in female C57 mouse systemic infection model assessed as effective dose; assay type: functional
[23] = system: Staphylococcus epidermidis; experiment: Antibacterial activity against methicillin-resistant Staphylococcus epidermidis clinical isolate 202409454 assessed as bacterial growth inhibition measured after 20 hrs by broth dilution method; assay type: functional
[24] = AUC (0 to t) in mouse at 5 mg/kg, iv measured after 8 hrs; assay type: ADME, organism-based; details: in vivo
Staphylococcus aureus [25] = experiment: Antibacterial activity against methicillin-resistant Staphylococcus aureus ATCC 33591 infected in female C57 mouse systemic infection model assessed as reduction in tubular necrosis in kidney at 40 mg/kg, iv administered twice daily and measured after 7 days by H and E staining based analysis; assay type: functional, organism-based; details: time 7.0 day
L02 = experiment: Cytotoxicity against human HL7702 cells at 0 to 40 ug/ml measured after 24 hrs by MTT assay relative to control; assay type: toxicity, cell-based; details: l02, 24 h, dose 0-40 µg/ml
A549 = experiment: Cytotoxicity against human A549 cells at 0 to 40 ug/ml measured after 24 hrs by MTT assay relative to control; assay type: functional; details: dose 0-40 µg/ml
Staphylococcus aureus [26] = experiment: Antibacterial activity against methicillin-resistant Staphylococcus aureus ATCC 33591 infected in female C57 mouse systemic infection model assessed as reduction in vacuolation in heart at 40 mg/kg, iv administered twice daily and measured after 7 days by H and E staining based analysis; assay type: functional, organism-based; details: time 7.0 day
Enterococcus faecium [27] = experiment: Ratio of MBC to MIC against vancomycin-resistant Enterococcus faecium ATCC 700221; assay type: functional
Staphylococcus aureus [28] = experiment: Antibiofilm activity in methicillin-resistant Staphylococcus aureus ATCC 33591 assessed as inhibition of biofilm formation measured after 48 hrs by crystal violet staining based analysis relative to control; assay type: functional, organism-based
Staphylococcus aureus [29] = experiment: Antibacterial activity against methicillin-resistant Staphylococcus aureus clinical isolate 202311772 assessed as bacterial growth inhibition measured after 20 hrs by broth dilution method; assay type: functional
Staphylococcus aureus [30] = experiment: Antibacterial activity against methicillin resistant Staphylococcus aureus ATCC 33591 assessed as post antibiotic effect at 2 times MIC by time kill assay; assay type: functional
[31] = system: Staphylococcus epidermidis; experiment: Antibacterial activity against methicillin-resistant Staphylococcus epidermidis clinical isolate 202409139 assessed as bacterial growth inhibition measured after 20 hrs by broth dilution method; assay type: functional
Staphylococcus aureus [32] = experiment: Bactericidal activity against methicillin-resistant Staphylococcus aureus ATCC 33591 at 4 to 8 times MIC measured after 6 to 8 hrs by time kill assay; assay type: functional, organism-based; details: time 6-8 hrs
Staphylococcus aureus [33] = experiment: Antibacterial activity against methicillin-resistant Staphylococcus aureus ATCC 33591 infected in female C57 mouse systemic infection model assessed as survival rate at 20 mg/kg, po measured upto 7 days relative to control; assay type: functional; details: ATCC 33591, 168 h, time <= 7 day
Staphylococcus aureus [34] = experiment: Antibiofilm activity in methicillin-resistant Staphylococcus aureus ATCC 33591 assessed as disruption of preformed biofilm at 4 to 16 times MIC measured after 24 hrs by crystal violet staining based assay relative to control; assay type: functional
Staphylococcus aureus [35] = experiment: Antibacterial activity against Staphylococcus aureus ATCC 33591 measured after 9 days; assay type: functional, organism-based; details: time 9.0 day

## C=C[C@]1(C)C[C@@H](OC(=O)CSc2cc(=O)oc3cc(OC)ccc23)[C@]2(C)[C@H](C)CC[C@]3(CCC(=O)[C@H]32)[C@@H](C)[C@@H]1O
[1]
  LD50 at 48 h: 2000 mg/kg
Staphylococcus aureus [2]
  Activity: Active
Staphylococcus aureus [3]
  Activity: 3.33 log10CFU/g
[4]
  MIC: 0.016 µg/mL (≈ 0.0281 µM)
Staphylococcus aureus [5]
  PAE: 1.9 h
Staphylococcus aureus [6]
  Activity: Time-dependent-effect
[7]
  hemolysis at 1 h: < 4%
Staphylococcus aureus [8]
  Activity: Active
Staphylococcus aureus [9]
  Activity: Active
Staphylococcus aureus [10]
  Activity: Active
Staphylococcus aureus [11]
  Activity: 1.91 log10CFU/g
[12]
  hemolysis at 1 h, 200 ug/ml: < 8%
Staphylococcus aureus [13]
  Activity: 30.31%
Staphylococcus aureus [14]
  Activity: Active
Enterococcus faecium [15]
  MIC: 0.031 µg/mL (≈ 0.0545 µM)
Staphylococcus aureus [16]
  Activity: Active
Staphylococcus aureus [17]
  MBEC: 8 µg/mL
Staphylococcus aureus [18]
  Activity: 50.42%
Staphylococcus aureus [19]
  Activity: Active
Staphylococcus aureus [20]
  MIC: 0.063 µg/mL (≈ 0.111 µM)
Staphylococcus aureus [21]
  Activity: Active
Staphylococcus aureus [22]
  ED50: 11.2 mg/kg
[23]
  MIC: 0.063 µg/mL (≈ 0.111 µM)
[24]
  AUCt: 1740 ng·h/mL
Staphylococcus aureus [25]
  Activity: Active
L02
  Activity: > 85%
A549
  Activity: >85%
Staphylococcus aureus [26]
  Activity: Active
Enterococcus faecium [27]
  Ratio: 1
Staphylococcus aureus [28]
  Activity: Dose-dependent-effect
Staphylococcus aureus [29]
  MIC: 0.031 µg/mL (≈ 0.0545 µM)
Staphylococcus aureus [30]
  PAE: 1.51 h
[31]
  MIC: 0.031 µg/mL (≈ 0.0545 µM)
Staphylococcus aureus [32]
  Activity: Active
Staphylococcus aureus [33]
  survival at 20 mg/kg: 60%
Staphylococcus aureus [34]
  Activity: 68.29%
Staphylococcus aureus [35]
  Activity: inactive
